In patent US20260235580A1, “P21-ACTIVATED KINASE 4 INHIBITION AND E-CADHERIN […] AND SCREENING METHOD THEREFOR” (priority 2023, published 2026):
Peptide text beside a SMILES is read from it. * marks the point of attachment. Cbz = O=C(OCc1ccccc1)*

Experiments:
Format in all cases: cell-based
[1] = test system: E-cadherin; test: Cycloheximide treatment of PANC-1 shCTRL/shPAK4 cells, western blot for E-cadherin (normalized by Vinculin); conditions: 20 μg/mL cycloheximide
Experimental: (§1) Experiment Method: PANC-1 cells were treated with 20 μg/mL cycloheximide (CHX), harvested at designated time points, and detected by western blot for E-cadherin, ZEB1, and Vinculin antibodies (left side of FIG. 5A). Quantitative evaluation of E-cadherin and ZEB1 protein levels was performed (normalized by Vinculin, right side of FIG. 5A). SU.86.86 and PANC-1 cells were cultured overnight in 1% P/S/10% FBS/DMEM, then converted to DMEM without Ca2+, and cultured for a specific time. E-cadherin, ZEB1, and Vinculin were detected by western blot (top side of FIG. 5B). E-cadherin and ZEB1 protein levels were quantitatively assessed (normalized by Vinculin, bottom side of FIG. 5B). PANC-1 cells stably expressing shCTRL or shPAK4 were treated with specific concentrations of MG132 for 24 hours and then detected by western blot for E-cadherin, ZEB1, and Vinculin antibodies (left side of FIG. 5C). E-cadherin and ZEB1 protein levels were quantitatively assessed (normalized by Vinculin, right side of FIG. 5C), After PANC-1 cells stably expressing shCTRL or shPAK4 were cultured in a serum-free medium for a certain period of time, activated Cdc42 and Rac1 interacting with GST-PBD-agarose were harvested from whole cell proteins. The activity of Cdc42 and Rac1 was detected by western blot (FIG. 5D). […]

[2] = test system: ZEB1; test: Cycloheximide treatment of PANC-1 shCTRL/shPAK4 cells, western blot for ZEB1 (normalized by Vinculin); conditions: 20 μg/mL cycloheximide
Experimental: as §1

[3] = test system: E-cadherin; test: MG132 treatment of PANC-1 cells stably expressing shCTRL or shPAK4, western blot for E-cadherin (normalized by Vinculin); conditions: specific concentrations of MG132 for 24 hours
Experimental: as §1

[4] = PANC-1 PAK4 knockdown (shPAK4) cells
[5] = PANC-1 shCTRL cells, harvested at designated time points

For `C[C@@H]1C[C@@H]([C@H](O)CC2CC(=O)NC(=O)C2)C(=O)[C@@H](C)C1` [cyclohexamide, cycloheximide], the E-cadherin expression [1, 4] was “remained the same”, the E-cadherin production [1, 5] was “inhibited” and the ZEB1 expression [2, 4] was “significantly reduced”. For the same molecule, the ZEB1 production [2, 5] was “inhibited”.
With `CC(C)C[C@@H](C=O)NC(=O)[C@H](CC(C)C)NC(=O)[C@H](CC(C)C)NC(=O)OCc1ccccc1` [MG132] (Cbz-Leu-Leu-Leu-aldehyde) the “amount of protein of E-cadherin” value [3, 4] was “such a pattern was not observed” and the “amount of protein of E-cadherin” value ([3]; PANC-1 shCTRL cells) was “decreased in a concentration-dependent manner”.
